pIC50: −log10 of the molar value.
tested on: BRK-BaF3 cells; assay: Cell antiproliferative activity assay (CCK-8), BRK-BaF3; type: cell-based; conditions: 72 h, CCK-8, 3 days incubation
In short: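 Growth inhibition over 3 days, with compound serially diluted 3-fold from a 10 µM top concentration. Cells seeded at 100,000 cells/mL; WT-BaF3 medium carried 10% WEHI supernatant as the IL-3 source. Viability read by CCK-8 OD450 after 2-4 h; IC50 from blank-subtracted curve fit.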

SMILES	pIC50
COc1nccnc1-c1cc(C(C)C)c2nc(Nc3cn(CCO)nc3C)ncc2c1 [I-82]	7.00 to 7.70
Cc1nn(CCO)cc1Nc1ncc2cc(-c3nccnc3N)cc(C(C)C)c2n1 [I-84]	≥ 7.70
Cc1cncc(-c2cc(C(C)C)c3nc(Nc4cn(CCO)nc4C)ncc3c2)n1 [I-90]	≥ 7.70
Cc1nn(CCO)cc1Nc1ncc2cc(-c3cncc(N)n3)cc(C(C)C)c2n1 [I-93]	7.00 to 7.70
Cc1cnc(C)c(-c2cc(C(C)C)c3nc(Nc4cn(CCO)nc4C)ncc3c2)n1 [I-96]	7.00 to 7.70
Cc1nccnc1-c1cc(C(C)C)c2nc(Nc3cnn(CCO)c3)ncc2c1 [I-97]	≥ 7.70
Cc1nccnc1-c1cc(C(C)C)c2nc(Nc3cn(CCO)nc3C(F)F)ncc2c1 [I-99]	≥ 7.70
Cc1nn(CCCO)cc1Nc1ncc2cc(-c3nccnc3C)cc(C(C)C)c2n1 [I-100]	≥ 7.70
Cc1nn(CC(C)(C)O)cc1Nc1ncc2cc(-c3nccnc3C)cc(C(C)C)c2n1 [I-101]	≥ 7.70
Cc1nccnc1-c1cc(C(C)C)c2nc(Nc3cnn(CCO)c3C)ncc2c1 [I-102]	≥ 7.70
Cc1nn(CCO)cc1Nc1ncc2cc(-c3nccnc3C)cc(C3CC3)c2n1 [I-103]	≥ 7.70
Cc1nn(CCO)cc1Nc1ncc2cc(-c3nccnc3Cl)cc(C3CC3)c2n1 [I-104]	≥ 7.70
Cc1nn(CCO)cc1Nc1ncc2cc(-c3nccnc3N)cc(C3CC3)c2n1 [I-105]	≥ 7.70
Cc1nccnc1-c1cc(C2CC2)c2nc(Nc3cnn(CCO)c3)ncc2c1 [I-107]	≥ 7.70
Cc1nccnc1-c1cc(C(F)(F)F)c2nc(Nc3cnn(CCO)c3)ncc2c1 [I-110]	≥ 7.70
Cc1nn(CCO)cc1Nc1ncc2cc(-c3nnccc3C#N)cc(C(C)C)c2n1 [I-117]	7.00 to 7.70
Cc1nn(CCO)cc1Nc1ncc2cc(-c3nnccc3C#N)cc(C3CC3)c2n1 [I-118]	7.00 to 7.70
Cc1ccnnc1-c1cc(C(F)(F)F)c2nc(Nc3cn(CCO)nc3C)ncc2c1 [I-122]	≥ 7.70
Cc1nn(CCO)cc1Nc1ncc2cc(-c3cncnc3)cc(C(C)C)c2n1 [I-123]	7.00 to 7.70
Cc1nn(CCO)cc1Nc1ncc2cc(-c3cncnc3N)cc(C(C)C)c2n1 [I-124]	7.00 to 7.70
Cc1nn(CCO)cc1Nc1ncc2cc(-c3c(C)ncnc3Cl)cc(C(C)C)c2n1 [I-127]	≥ 7.70
Cc1nn(CCO)cc1Nc1ncc2cc(-c3c(C)ncnc3C)cc(C(C)C)c2n1 [I-128]	≥ 7.70
Cc1nn(CCO)cc1Nc1ncc2cc(-c3c(C)ncnc3N)cc(C(C)C)c2n1 [I-129]	7.00 to 7.70

SMILES	pIC50
Cc1nn(CCO)cc1Nc1ncc2cc(-c3c(C)ncnc3O)cc(C(C)C)c2n1 [I-130]	7.00 to 7.70
COc1ncnc(C)c1-c1cc(C(C)C)c2nc(Nc3cn(CCO)nc3C)ncc2c1 [I-131]	≥ 7.70
Cc1nn(CCO)cc1Nc1ncc2cc(-c3ncnc(C)c3Br)cc(C(C)C)c2n1 [I-139]	≥ 7.70
Cc1ncnc(C)c1-c1cc(C(C)C)c2nc(Nc3cn(CCO)nc3C(F)F)ncc2c1 [I-141]	7.00 to 7.70
Cc1nn(CCCO)cc1Nc1ncc2cc(-c3c(C)ncnc3C)cc(C(C)C)c2n1 [I-142]	≥ 7.70
Cc1ncnc(C)c1-c1cc(C(C)C)c2nc(Nc3cn(CCO)nc3Cl)ncc2c1 [I-143]	7.00 to 7.70
Cc1nn(CC(C)(C)O)cc1Nc1ncc2cc(-c3c(C)ncnc3C)cc(C(C)C)c2n1 [I-144]	≥ 7.70
Cc1cncnc1-c1cc(C2CC2)c2nc(Nc3cn(CCO)nc3C)ncc2c1 [I-148]	≥ 7.70
Cc1ncnc(C)c1-c1cc(C(F)(F)F)c2nc(Nc3cnn(CCO)c3)ncc2c1 [I-149]	7.00 to 7.70
Cc1nn(CCO)cc1Nc1ncc2cc(-c3c(C)ncnc3C)cc(C(F)(F)F)c2n1 [I-150]	≥ 7.70
Cc1nn(CCO)cc1Nc1ncc2cc(-c3cncnc3)cc(C(F)(F)F)c2n1 [I-151]	7.00 to 7.70
Cc1nn(CCO)cc1Nc1ncc2cc(-c3cncnc3C)cc(C(F)(F)F)c2n1 [I-152]	≥ 7.70
COc1ncncc1-c1cc(C(F)(F)F)c2nc(Nc3cn(CCO)nc3C)ncc2c1 [I-153]	≥ 7.70
Cc1nn(CCO)cc1Nc1ncc2cc(-c3c(O)cccc3F)cc(C(C)C)c2n1 [I-155]	≥ 7.70
Cc1ccc(C#N)cc1-c1cc(C(C)C)c2nc(Nc3cnn(CCO)c3C)ncc2c1 [I-170]	≥ 7.70
Cc1c[nH]c(=O)cc1-c1cc(C(C)C)c2nc(Nc3cnn(CCO)c3C)ncc2c1 [I-181]	7.00 to 7.70
Cc1nn(CCO)cc1Nc1ncc2cc(-c3cn(C)nc3C)cc(C(C)C)c2n1 [I-188]	≥ 7.70
Cc1cn(C)nc1-c1cc(C(C)C)c2nc(Nc3cn(CCO)nc3C)ncc2c1 [I-190]	≥ 7.70
Cc1cnn(C)c1-c1cc(C(C)C)c2nc(Nc3cn(CCO)nc3C)ncc2c1 [I-191]	≥ 7.70
Cc1nc(P(C)(C)=O)ccc1Nc1ncc2cc(-c3nccnc3C)cc(C(C)C)c2n1 [II-1]	≥ 7.70
COc1nc(P(C)(C)=O)ccc1Nc1ncc2cc(-c3nccnc3C)cc(C(C)C)c2n1 [II-2]	≥ 7.70
Cc1nccnc1-c1cc(C(C)C)c2nc(Nc3ccc(P(C)(C)=O)nc3)ncc2c1 [II-3]	≥ 7.70

tested on: WT-BaF3 cells; assay: Cell antiproliferative activity assay (CCK-8), WT-BaF3 (broad-spectrum cytotoxicity); type: cell-based; conditions: 72 h; WT-BaF3 cells (IL-3 supplemented), CCK-8, 3 days incubation
Procedure: The activity of compounds against BRK kinase can be evaluated by their inhibition of the growth of the BRK kinase-stably transfected BaF3 cell line (BRK-BaF3) and wild-type BaF3 cells (WT-BaF3). […] The larger the ratio of the half-maximal growth inhibitory concentration (IC50) of a compound between WT-BaF3 and BRK-BaF3 cells, the better the selectivity of the compound.
BRK-BaF3, WT-BaF3, WEHI cell line, and breast cancer cell line T47D were cultured using RPMI 1640 Basal medium or DMEM (Dulbecco's Modified Eagle Medium) (Shanghai Peiyuan Biotechnology, L220KJ), supplemented with 10% FBS (Gibco, REF 10099-141C) and 1% P/S (Shanghai Peiyuan Biotechnology, S110JV), in an incubator (Thermo 3020) at 37°C with 5% CO2. Cell viability was above 95%. Cells were passaged at a 3:1 ratio every 3-4 days. For WT-BaF3 cells, WEHI cells were first cultured, and their culture supernatant was filtered through a 0.22 µm filter. This supernatant was added at 10% to the regular culture medium to supplement IL-3 required for WT-BaF3 cell proliferation, which served as the culture medium for WT-BaF3. For testing, cells were first collected and counted, then prepared into a cell suspension at 100,000 cells/mL and plated at 100 µL per well. Drug concentrations started from 10 µM and were serially diluted 3:1. After incubation for 3 days, 20 µL of CCK-8 detection reagent (Targetmol C005) was added to each well. After incubation for 2-4 hours, OD450 was measured using a microplate reader (Varioskan LUX, Thermo Scientific). After subtracting the blank background, the curve was fitted and the IC50 was calculated using XLfit software.

SMILES	pIC50
COc1nccnc1-c1cc(C(C)C)c2nc(Nc3cn(CCO)nc3C)ncc2c1 [I-82]	5.60 to 6.30
Cc1nn(CCO)cc1Nc1ncc2cc(-c3nccnc3N)cc(C(C)C)c2n1 [I-84]	< 5.60
Cc1cncc(-c2cc(C(C)C)c3nc(Nc4cn(CCO)nc4C)ncc3c2)n1 [I-90]	5.60 to 6.30
Cc1nn(CCO)cc1Nc1ncc2cc(-c3cncc(N)n3)cc(C(C)C)c2n1 [I-93]	< 5.60
Cc1cnc(C)c(-c2cc(C(C)C)c3nc(Nc4cn(CCO)nc4C)ncc3c2)n1 [I-96]	< 5.60
Cc1nccnc1-c1cc(C(C)C)c2nc(Nc3cnn(CCO)c3)ncc2c1 [I-97]	5.60 to 6.30
Cc1nccnc1-c1cc(C(C)C)c2nc(Nc3cn(CCO)nc3C(F)F)ncc2c1 [I-99]	5.60 to 6.30
Cc1nn(CCCO)cc1Nc1ncc2cc(-c3nccnc3C)cc(C(C)C)c2n1 [I-100]	5.60 to 6.30
Cc1nn(CC(C)(C)O)cc1Nc1ncc2cc(-c3nccnc3C)cc(C(C)C)c2n1 [I-101]	< 5.60
Cc1nccnc1-c1cc(C(C)C)c2nc(Nc3cnn(CCO)c3C)ncc2c1 [I-102]	< 5.60
Cc1nn(CCO)cc1Nc1ncc2cc(-c3nccnc3C)cc(C3CC3)c2n1 [I-103]	5.60 to 6.30
Cc1nn(CCO)cc1Nc1ncc2cc(-c3nccnc3Cl)cc(C3CC3)c2n1 [I-104]	< 5.60
Cc1nn(CCO)cc1Nc1ncc2cc(-c3nccnc3N)cc(C3CC3)c2n1 [I-105]	5.60 to 6.30
Cc1nccnc1-c1cc(C2CC2)c2nc(Nc3cnn(CCO)c3)ncc2c1 [I-107]	5.60 to 6.30
Cc1nccnc1-c1cc(C(F)(F)F)c2nc(Nc3cnn(CCO)c3)ncc2c1 [I-110]	< 5.60
Cc1nn(CCO)cc1Nc1ncc2cc(-c3nnccc3C#N)cc(C(C)C)c2n1 [I-117]	< 5.60
Cc1nn(CCO)cc1Nc1ncc2cc(-c3nnccc3C#N)cc(C3CC3)c2n1 [I-118]	< 5.60
Cc1ccnnc1-c1cc(C(F)(F)F)c2nc(Nc3cn(CCO)nc3C)ncc2c1 [I-122]	5.60 to 6.30
Cc1nn(CCO)cc1Nc1ncc2cc(-c3cncnc3)cc(C(C)C)c2n1 [I-123]	5.60 to 6.30
Cc1nn(CCO)cc1Nc1ncc2cc(-c3cncnc3N)cc(C(C)C)c2n1 [I-124]	< 5.60
Cc1nn(CCO)cc1Nc1ncc2cc(-c3c(C)ncnc3Cl)cc(C(C)C)c2n1 [I-127]	< 5.60
Cc1nn(CCO)cc1Nc1ncc2cc(-c3c(C)ncnc3C)cc(C(C)C)c2n1 [I-128]	< 5.60
Cc1nn(CCO)cc1Nc1ncc2cc(-c3c(C)ncnc3N)cc(C(C)C)c2n1 [I-129]	< 5.60

SMILES	pIC50
Cc1nn(CCO)cc1Nc1ncc2cc(-c3c(C)ncnc3O)cc(C(C)C)c2n1 [I-130]	< 5.60
COc1ncnc(C)c1-c1cc(C(C)C)c2nc(Nc3cn(CCO)nc3C)ncc2c1 [I-131]	< 5.60
Cc1nn(CCO)cc1Nc1ncc2cc(-c3ncnc(C)c3Br)cc(C(C)C)c2n1 [I-139]	5.60 to 6.30
Cc1ncnc(C)c1-c1cc(C(C)C)c2nc(Nc3cn(CCO)nc3C(F)F)ncc2c1 [I-141]	< 5.60
Cc1nn(CCCO)cc1Nc1ncc2cc(-c3c(C)ncnc3C)cc(C(C)C)c2n1 [I-142]	< 5.60
Cc1ncnc(C)c1-c1cc(C(C)C)c2nc(Nc3cn(CCO)nc3Cl)ncc2c1 [I-143]	< 5.60
Cc1nn(CC(C)(C)O)cc1Nc1ncc2cc(-c3c(C)ncnc3C)cc(C(C)C)c2n1 [I-144]	< 5.60
Cc1cncnc1-c1cc(C2CC2)c2nc(Nc3cn(CCO)nc3C)ncc2c1 [I-148]	< 5.60
Cc1ncnc(C)c1-c1cc(C(F)(F)F)c2nc(Nc3cnn(CCO)c3)ncc2c1 [I-149]	< 5.60
Cc1nn(CCO)cc1Nc1ncc2cc(-c3c(C)ncnc3C)cc(C(F)(F)F)c2n1 [I-150]	< 5.60
Cc1nn(CCO)cc1Nc1ncc2cc(-c3cncnc3)cc(C(F)(F)F)c2n1 [I-151]	< 5.60
Cc1nn(CCO)cc1Nc1ncc2cc(-c3cncnc3C)cc(C(F)(F)F)c2n1 [I-152]	< 5.60
COc1ncncc1-c1cc(C(F)(F)F)c2nc(Nc3cn(CCO)nc3C)ncc2c1 [I-153]	< 5.60
Cc1nn(CCO)cc1Nc1ncc2cc(-c3c(O)cccc3F)cc(C(C)C)c2n1 [I-155]	5.60 to 6.30
Cc1ccc(C#N)cc1-c1cc(C(C)C)c2nc(Nc3cnn(CCO)c3C)ncc2c1 [I-170]	< 5.60
Cc1c[nH]c(=O)cc1-c1cc(C(C)C)c2nc(Nc3cnn(CCO)c3C)ncc2c1 [I-181]	< 5.60
Cc1nn(CCO)cc1Nc1ncc2cc(-c3cn(C)nc3C)cc(C(C)C)c2n1 [I-188]	5.60 to 6.30
Cc1cn(C)nc1-c1cc(C(C)C)c2nc(Nc3cn(CCO)nc3C)ncc2c1 [I-190]	5.60 to 6.30
Cc1cnn(C)c1-c1cc(C(C)C)c2nc(Nc3cn(CCO)nc3C)ncc2c1 [I-191]	5.60 to 6.30
Cc1nc(P(C)(C)=O)ccc1Nc1ncc2cc(-c3nccnc3C)cc(C(C)C)c2n1 [II-1]	< 5.60
COc1nc(P(C)(C)=O)ccc1Nc1ncc2cc(-c3nccnc3C)cc(C(C)C)c2n1 [II-2]	< 5.60
Cc1nccnc1-c1cc(C(C)C)c2nc(Nc3ccc(P(C)(C)=O)nc3)ncc2c1 [II-3]	< 5.60
